Data: patent US9255100B2 (BAYER INTELLECTUAL PROPERTY GMBH, priority 2010, dated 2016)

These molecules were tested against T1, N-terminally GST-tagged human full length recombinant Mps-1 kinase (Homo sapiens, UniProt P33981) (assay: Mps-1 kinase assay (TR-FRET)). Settings: Mps1 IC50 [nM], 10 μM ATP, 1 μM peptide substrate, 60 min at 22° C.
T1 construct: N-terminally GST-tagged human full length recombinant Mps-1 kinase; purchased Invitrogen, Karslruhe, Germany PV4071
T1 sequence (P33981 1-857): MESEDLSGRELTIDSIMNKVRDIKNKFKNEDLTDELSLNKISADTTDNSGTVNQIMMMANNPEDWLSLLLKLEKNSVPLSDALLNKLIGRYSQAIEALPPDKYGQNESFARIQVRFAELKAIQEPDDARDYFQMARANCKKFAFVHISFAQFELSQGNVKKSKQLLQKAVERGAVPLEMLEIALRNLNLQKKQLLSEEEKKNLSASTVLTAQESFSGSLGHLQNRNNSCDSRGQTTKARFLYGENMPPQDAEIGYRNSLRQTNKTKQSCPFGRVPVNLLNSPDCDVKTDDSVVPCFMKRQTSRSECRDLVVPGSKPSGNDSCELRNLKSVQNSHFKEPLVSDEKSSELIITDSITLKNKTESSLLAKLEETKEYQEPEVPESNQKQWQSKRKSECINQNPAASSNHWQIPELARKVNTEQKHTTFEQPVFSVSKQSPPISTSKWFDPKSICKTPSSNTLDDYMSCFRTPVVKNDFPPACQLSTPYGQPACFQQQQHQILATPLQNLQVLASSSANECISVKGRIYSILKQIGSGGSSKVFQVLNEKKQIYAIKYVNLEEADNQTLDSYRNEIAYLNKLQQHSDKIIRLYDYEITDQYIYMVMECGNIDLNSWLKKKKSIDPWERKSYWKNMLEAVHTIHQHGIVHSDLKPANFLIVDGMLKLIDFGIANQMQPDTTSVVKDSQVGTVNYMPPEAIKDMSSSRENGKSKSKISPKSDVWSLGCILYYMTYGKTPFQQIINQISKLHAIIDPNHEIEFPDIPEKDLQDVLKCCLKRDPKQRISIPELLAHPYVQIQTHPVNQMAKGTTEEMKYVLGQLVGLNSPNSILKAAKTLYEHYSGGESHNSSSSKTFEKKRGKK
Type: biochemical
Method in brief: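 GST-Mps-1 (full length, N-term tag) ~1 nM final, linear-range adjusted per lot; biotinylated peptide substrate. Detection: Eu-anti-pSer/Thr donor → SA-XLent acceptor TR-FRET, 1 h, 22° C. Inhibition of kinase activity.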
In the case of `Cc1cc(F)cc(Sc2cc(NCCC(F)(F)F)c3ncc(-c4ccc(C(=O)NC5CC5)c(C)c4)n3n2)c1` [Example 79, N-cyclopropyl-4-{6-[(3-fluoro-5-methylphenyl)sulfanyl]-8-[(3,3,3-trifluoropropyl)amino]imidazo[1,2-b]pyridazin-3-yl}-2-methylbenzamide], the IC50 is reported as 0.7 nM.
In the case of `Cc1ccc(F)c(Oc2cc(NCC(C)(C)O)c3ncc(-c4ccc(C(=O)NC5CC5)c(C)c4)n3n2)c1` [Example 81, N-cyclopropyl-4-{6-(2-fluoro-5-methylphenoxy)-8-[(2-hydroxy-2-methylpropyl)amino]imidazo[1,2-b]pyridazin-3-yl}-2-methylbenzamide], the IC50 is reported as 0.2 nM.
Molecule `Cc1cc(-c2cnc3c(NCC(C)(C)O)cc(Oc4cccc(C#N)c4)nn23)ccc1C(=O)NC1CC1` [Example 82, 4-{6-(3-Cyanophenoxy)-8-[(2-hydroxy-2-methylpropyl)amino]imidazo[1,2-b]pyridazin-3-yl}-N-cyclopropyl-2-methylbenzamide] has an IC50 of 0.3 nM.
With `Cc1cc(-c2cnc3c(NCCC(F)(F)F)cc(S(=O)(=O)c4cccc(F)c4)nn23)ccc1C(=O)NC1CC1` [Example 83A, N-cyclopropyl-4-{6-[(3-fluorophenyl)sulfonyl]-8-[(3,3,3-trifluoropropyl)amino]imidazo[1,2-b]pyridazin-3-yl}-2-methylbenzamide] the IC50 was 0.2 nM.
`Cc1cc(-c2cnc3c(NCCC(F)(F)F)cc(Sc4ccccc4)nn23)ccc1C(=S)NC1CC1` [Example 84, N-cyclopropyl-2-methyl-4-{6-(phenylsulfanyl)-8-[(3,3,3-trifluoropropyl)amino]imidazo[1,2-b]pyridazin-3-yl}benzenecarbothioamide] showed an IC50 of 0.3 nM.
For `Cc1cc(-c2cnc3c(NCC(C)(C)O)cc(Oc4cccc(Cl)c4)nn23)ccc1C(=O)NC1CC1` [Example 85, 4-{6-(3-Chlorophenoxy)-8-[(2-hydroxy-2-methylpropyl)amino]imidazo[1,2-b]pyridazin-3-yl}-N-cyclopropyl-2-methylbenzamide], the IC50 was 0.2 nM.
For `COc1ccc(Oc2cc(NCC(C)(C)O)c3ncc(-c4ccc(C(=O)NC5CC5)c(C)c4)n3n2)cc1` [Example 86, N-cyclopropyl-4-{8-[(2-hydroxy-2-methylpropyl)amino]-6-(4-methoxyphenoxy)imidazo[1,2-b]pyridazin-3-yl}-2-methylbenzamide], the IC50 was 0.1 nM.
In the case of `Cc1cc(F)cc(Oc2cc(NCC(C)(C)O)c3ncc(-c4ccc(C(=O)NC5CC5)c(C)c4)n3n2)c1` [Example 87, N-cyclopropyl-4-{6-(3-fluoro-5-methylphenoxy)-8-[(2-hydroxy-2-methylpropyl)amino]imidazo[1,2-b]pyridazin-3-yl}-2-methylbenzamide], the IC50 is reported as 0.2 nM.
In the case of `Cc1cc(F)cc(Oc2cc(NCCC(F)(F)F)c3ncc(-c4ccc(C(=O)NC5CC5)c(C)c4)n3n2)c1` [Example 88, N-cyclopropyl-4-{6-(3-fluoro-5-methylphenoxy)-8-[(3,3,3-trifluoropropyl)amino]imidazo[1,2-b]pyridazin-3-yl}-2-methylbenzamide], the IC50 is reported as 0.4 nM.
For `Cc1cc(-c2cnc3c(NCC(C)(C)O)cc(Sc4cccc(F)c4)nn23)ccc1C(=O)NC1CC1` [Example 89, N-cyclopropyl-4-{6-[(3-fluorophenyl)sulfanyl]-8-[(2-hydroxy-2-methylpropyl)amino]imidazo[1,2-b]pyridazin-3-yl}-2-methylbenzamide], the IC50 was 0.2 nM.
`Cc1cc(-c2cnc3c(NCC(C)(C)O)cc(Oc4ccc(Cl)cc4)nn23)ccc1C(=O)NC1CC1` [Example 90, 4-{6-(4-Chlorophenoxy)-8-[(2-hydroxy-2-methylpropyl)amino]imidazo[1,2-b]pyridazin-3-yl}-N-cyclopropyl-2-methylbenzamide] showed an IC50 of 0.5 nM.
`Cc1cc(-c2cnc3c(NCC(C)(C)O)cc(Oc4ccc(F)c(Cl)c4)nn23)ccc1C(=O)NC1CC1` [Example 91, 4-{6-(3-Chloro-4-fluorophenoxy)-8-[(2-hydroxy-2-methylpropyl)amino]imidazo[1,2-b]pyridazin-3-yl}-N-cyclopropyl-2-methylbenzamide] showed an IC50 of 0.5 nM.
`Cc1cc(-c2cnc3c(NCC(C)(C)O)cc(Oc4cccc(F)c4F)nn23)ccc1C(=O)NC1CC1` [Example 92, N-cyclopropyl-4-{6-(2,3-difluorophenoxy)-8-[(2-hydroxy-2-methylpropyl)amino]imidazo[1,2-b]pyridazin-3-yl}-2-methylbenzamide] gave an IC50 of 0.2 nM.
For `Cc1cc(-c2cnc3c(NCC(C)(C)O)cc(Oc4ccccc4F)nn23)ccc1C(=O)NC1CC1` [Example 93, N-cyclopropyl-4-{6-(2-fluorophenoxy)-8-[(2-hydroxy-2-methylpropyl)amino]imidazo[1,2-b]pyridazin-3-yl}-2-methylbenzamide], the IC50 was 0.3 nM.
Molecule `Cc1cc(-c2cnc3c(NCC(C)(C)O)cc(Oc4cccc(C(C)C)c4)nn23)ccc1C(=O)NC1CC1` [Example 94, N-cyclopropyl-4-{8-[(2-hydroxy-2-methylpropyl)amino]-6-(3-isopropylphenoxy)imidazo[1,2-b]pyridazin-3-yl}-2-methylbenzamide] has an IC50 of 0.3 nM.
In the case of `Cc1cc(-c2cnc3c(NCC(C)(C)O)cc(Oc4ccc(Cl)c(F)c4)nn23)ccc1C(=O)NC1CC1` [Example 95, 4-{6-(4-Chloro-3-fluorophenoxy)-8-[(2-hydroxy-2-methylpropyl)amino]imidazo[1,2-b]pyridazin-3-yl}-N-cyclopropyl-2-methylbenzamide], the IC50 is reported as 0.3 nM.
`Cc1cc(C)cc(Oc2cc(NCC(C)(C)O)c3ncc(-c4ccc(C(=O)NC5CC5)c(C)c4)n3n2)c1` [Example 96, N-cyclopropyl-4-{6-(3,5-dimethylphenoxy)-8-[(2-hydroxy-2-methylpropyl)amino]imidazo[1,2-b]pyridazin-3-yl}-2-methylbenzamide] was tested, and the IC50 was 0.8 nM.
`Cc1cccc(Oc2cc(NCC(C)(C)O)c3ncc(-c4ccc(C(=O)NC5CC5)c(C)c4)n3n2)c1` [Example 97, N-cyclopropyl-4-{8-[(2-hydroxy-2-methylpropyl)amino]-6-(3-methylphenoxy)imidazo[1,2-b]pyridazin-3-yl}-2-methylbenzamide] gave an IC50 of 0.2 nM.
For `NS(=O)(=O)CCNc1cc(Cl)nn2c(-c3ccc(C(=O)NC4CC4)cc3)cnc12` [Example 98, 4-{6-Chloro-8-[(2-sulfamoylethyl)amino]imidazo[1,2-b]pyridazin-3-yl}-N-cyclopropylbenzamide], the IC50 was 52.3 nM.
With `Cc1cc(-c2cnc3c(NCC(C)C)cc(Cl)nn23)ccc1C(=O)NC1CC1` [Example 99, 4-{6-Chloro-8-[(2-methylpropyl)amino]imidazo[1,2-b]pyridazin-3-yl}-N-cyclopropyl-2-methylbenzamide] the IC50 was 29.5 nM.
Work on `CC(C)CNc1cc(-c2cccc3ccccc23)nn2c(-c3ccc(C(=O)NC4CC4)cc3)cnc12` [Example 102, N-cyclopropyl-4-{8-[(2-methylpropyl)amino]-6-(naphthalen-1-yl)imidazo[1,2-b]pyridazin-3-yl}benzamide] yielded an IC50 of 24.6 nM.
In the case of `CC(C)CNc1cc(-c2cccc(CO)c2)nn2c(-c3ccc(C(=O)NC4CC4)cc3)cnc12` [Example 103, N-cyclopropyl-4-{6-[3-(hydroxymethyl)phenyl]-8-[(2-methylpropyl)amino]imidazo[1,2-b]pyridazin-3-yl}benzamide], the IC50 is reported as under 1 nM.
In the case of `CC(C)CNc1cc(-c2ccc(F)cc2)nn2c(-c3ccc(C(=O)NC4CC4)cc3)cnc12` [Example 104, N-cyclopropyl-4-{6-(4-fluorophenyl)-8-[(2-methylpropyl)amino]imidazo[1,2-b]pyridazin-3-yl}benzamide], the IC50 is reported as under 1 nM.
Work on `Cc1cccc(-c2cc(NCC(C)C)c3ncc(-c4ccc(C(=O)NC5CC5)cc4)n3n2)c1` [Example 105, N-cyclopropyl-4-{6-(3-methylphenyl)-8-[(2-methylpropyl)amino]imidazo[1,2-b]pyridazin-3-yl}benzamide] yielded an IC50 of 3.5 nM.
`Cc1cccc(-c2cc(NCC(C)C)c3ncc(-c4ccc(C(=O)NC5CC5)cc4)n3n2)c1C` [Example 106, N-cyclopropyl-4-{6-(2,3-dimethylphenyl)-8-[(2-methylpropyl)amino]imidazo[1,2-b]pyridazin-3-yl}benzamide] gave an IC50 of 8.9 nM.
In the case of `CC(=O)Nc1ccccc1-c1cc(NCC(C)C)c2ncc(-c3ccc(C(=O)NC4CC4)cc3)n2n1` [Example 107, 4-{6-[2-(Acetylamino)phenyl]-8-[(2-methylpropyl)amino]imidazo[1,2-b]pyridazin-3-yl}-N-cyclopropylbenzamide], the IC50 is reported as 35.5 nM.
`CC(C)CNc1cc(-c2cnc3ccccc3c2)nn2c(-c3ccc(C(=O)NC4CC4)cc3)cnc12` [Example 108, N-cyclopropyl-4-{8-[(2-methylpropyl)amino]-6-(quinolin-3-yl)imidazo[1,2-b]pyridazin-3-yl} benzamide] was tested, and the IC50 was 7 nM.
